Laboratory results published in US20110158909A1, “Cationic Contrast Agents and Methods of Use Thereof” (Trustees of Boston University, priority 2008, published 2011).
Where two headings read alike, the source gives them in different places.

How the values were obtained:
[1] = Cartilage degradation study (chondroitinase ABC): CT attenuation vs GAG content by DMMB assay; set-up: species or system bovine; conditions: for slope of linear regression, average CT intensity vs GAG content: GAG content as 100×(mg of GAG)/(mg of hydrated cartilage)
Text: In order to evaluate the ability of the contrast agents to diagnose an OA state, the hyaline cartilage of the osteochondral plugs was enzymatically degraded to mimic the GAG depletion observed in early OA by exposing the hyaline cartilage to different concentrations of the polysaccharide-specific hydrolase, chondroitinase ABC. After degradation, the same set of osteochondral plugs was exposed to each contrast agent consecutively, enabling a direct comparison of the resulting data. The average CT attenuation for each group was plotted as a function of the GAG content obtained by the DMMB assay and subjected to linear regression analysis (FIG. 7A). […] The variation in CT attenuation effected by diffusion of cationic contrast agent 6, with four positive charges, into the hyaline cartilage accounted for 79% of the variation in cartilage GAG, whereas the variation in CT attenuation effected by diffusion of cationic contrast agent 4, with a single positive charge, accounted for 56% of the variation in cartilage GAG. In comparison, the diffusion of anionic contrast agent iothalamate with a single negative charge accounted for 52% of the variation in cartilage GAG. The slope of the regression line represents the sensitivity of contrast enhanced CT attenuation of cartilage to changes in the GAG content of the cartilage. The cationic contrast agents were more sensitive (4: 1.4× and 6: 5.3×) to changes in cartilage GAG content than the anionic contrast agent iothalamate.

[2] = Passive diffusion of contrast agents into and out of articular cartilage, quantitative CT; set-up: species or system bovine; conditions: for average CT attenuation: time=5 h to time=24 h of immersion in contrast agent, 27 mg iodine/mL, pH 6.8, n=4
Procedure: The diffusion characteristics of the contrast agents were evaluated using bovine osteochondral plugs. Two cationic contrast agents, 4 and 6, were compared to a commercially-available singly-charged anionic contrast agent, iothalamate (Cysto Conray II®). Three groups of osteochondral plugs were prepared (n=4)—one for each contrast agent. The plugs were immersed in aqueous contrast agent solution (27 mg of organically-bound iodine/mL, pH 6.8) and removed at 1, 2, 4, 6, 18, and 24 h for imaging using quantitative CT (QCT). Following diffusion into the cartilage, the osteochondral plugs were immersed in saline solution and imaged at the same time points to monitor the diffusion of the contrast agent out of the cartilage. Articular cartilage has a natural anisotropic distribution of GAGs, with low GAG content in the superficial zone and higher GAG content in the middle and deep zones. This anisotropic distribution of GAG was reflected by the variation in x-ray attenuation in the CT images (FIG. 5B). […] In order to determine the initial rates of diffusion into the cartilage tissue, linear regression analyses were applied to the contrast-enhanced CT attenuation data for each osteochondral plug after immersion for 0, 1, and 2 h (Table 1). The slope represents the average rate of diffusion for each contrast agent. Cationic contrast agents 4 and 6 diffuse into cartilage 1.77 and 1.65 times faster, respectively, than the anionic agent iothalamate (FIG. 6).

[3] = CT imaging of normal and trypsin degraded osteochondral plugs with anionic and cationic contrast agent; set-up: species or system bovine; conditions: for x-ray attenuation coefficient, normal vs trypsin degraded osteochondral plugs: 16 mg/mL bound iodine, overnight at 4° C., p<0.05
Procedure: In one experiment, eight osteochondral plugs (7 mm diameter) were harvested immediately after slaughter from the patella-femoral joint of three mature cows using a water-cooled, cylindrical diamond tipped cutter (See FIG. 2a for an example picture of osteochondral plugs). The plugs were divided into a normal cartilage group (n=4) and a trypsin degraded cartilage group (n=4). The osteochondral plugs of the degraded cartilage group were immersed in trypsin (2 mg/mL in 50 mM Tris, 20 mM CaCl2, pH=7.8) and incubated for 2 hours at 37° C.
All the plugs were immersed overnight in Cysto Conray II, an anionic, triiodinated contrast agent, diluted in PBS to 16 mg/mL of bound iodine at 4° C. to allow sufficient time for the contrast agent to diffuse into the cartilage. Sequential, 100μ thick, transaxial pQCT images were obtained at 70μ in plane resolution and 300μ inter-slice distance (XCT Research SA+, Stratec) for all the osteochondral plugs. The CT data were imported into Analyze™ (BIR, Mayo Clinic) to create reconstructed 3D images of the osteochondral plugs (see FIG. 2b for a representative image representing one slice of the reconstructed 3D image). A user specified contour was employed to segment the cartilage from the bone. The mean x-ray attenuation coefficient for cartilage was obtained by averaging over all pixels contained in cartilage on the transaxial CT images. The osteochondral plugs were then washed in PBS to remove the anionic contrast agent. The plugs were then re-immersed in the cationic triiodinated contrast agent at the same dilution and conditions used for the anionic contrast agent and repeat CT imaging of the osteochondral plugs was performed.
The GAG content of the articular cartilage was measured using a dimethylmethylene blue (DMMB) assay. A razor blade was used to separate the articular cartilage from the subchondral bone and the cartilage was stored at −20° C. After weighing the hydrated cartilage, it was lyophilized and weighed dry. The cartilage was digested with papain at 65° C. for 24 hours and diluted 10 to 100 times for the assay. Accounting for the dilution, the total GAG weight per mg cartilage dry weight was calculated.
The GAG content measured directly; the x-ray attenuation measured by CT for the anionic and cationic contrast agents were compared for the normal and trypsin degraded articular cartilage plugs using 1-way.ANOVA. Further, the x-ray attenuation measured by CT for both the anionic and cationic contrast agents was expressed as a function of the measured GAG content. The slopes of these relationships were compared to assess the relative sensitivity of these contrast agents to measure differences in the GAG content of articular cartilage.

[4] = microCT imaging of intact rabbit femur; conditions: magnified view of cartilage surface, FIG. 8B
Text: Contrast agent 6 was chosen for use in a rabbit femur study to highlight the ability of the cationic contrast agent to portray the variation in cartilage GAG concentration and cartilage thickness in an intact rabbit femur. […] The contrast-enhanced CT image was able to define the anisotropic distribution of GAG through the depth of the articular cartilage. […] The contrast enhanced CT image of the femur can also be used to determine the variable thickness of the articular cartilage. […] Cartilage thickness is greater at the femoral groove than at the condyles.

[5] = 2 h immersion in contrast agent

SMILES	relation of CT attenuation to GAG content [1]	variation in cartilage GAG accounted for by variation in CT attenuation [1]	slope of linear regression, average CT intensity vs GAG content [1]	level of CT attenuation in CT images of degraded and undegraded plugs ([1]; after equilibrium in contrast agent, FIG. 7B)	CT attenuation of cartilage in CT images [2, 5]	reflection of anisotropic GAG distribution (deep vs superficial zone) in CT images ([2]; FIG. 5B)	CT attenuation of cartilage in CT images ([2]; after 2 h of immersion in saline)	removal from cartilage on immersion in saline ([2]; after immersion in saline for 6 hours)	average CT attenuation [2]	x-ray attenuation coefficient, normal vs trypsin degraded osteochondral plugs [3]	sensitivity of relative change in x-ray attenuation to change in GAG content, compared to anionic contrast agent ([3]; normal vs trypsin degraded plugs)	enhancement of CT images of cartilage tissue ([3]; osteochondral plugs)	level of CT attenuation in CT images of degraded and undegraded plugs [1]	sensitivity to changes in cartilage GAG content relative to iothalamate (slope of regression line) [1]	sensitivity to distribution of GAG in cartilage surface [4]	CT attenuation of cartilage in CT images ([2]; after 24 h in saline)	x-ray attenuation higher compared to iothalamate ([2]; after equilibration (24 h))	initial rate of diffusion into cartilage relative to iothalamate ([2]; linear regression of CT attenuation at 0, 1 and 2 h)
CNC(=O)c1c(I)c(NC(C)=O)c(I)c(C(=O)O)c1I [iothalamate, reference compound]	indirectly related	52%	negative slope	low levels of CT attenuation	very little change	less sensitive to subtle changes in the GAG content	began to decline	almost completely removed	500-600	inverse relation								
NCCNC(=O)c1c(I)c(N)c(I)c(C(=O)NCCN)c1I [contrast agent 2]										greater than that for the trypsin degraded osteochondral plugs	4.3 ×	capable of enhancing CT images of the cartilage tissue						
NCCNC(=O)c1c(I)cc(I)c(N)c1I [contrast agent 6]	directly proportional	79%	13758		medium levels				900-1100				high levels of CT attenuation	5.3 ×	sensitive to the variable distribution of GAG throughout the cartilage surface	still showed medium levels of CT attenuation	~60%	1.65 times faster
